ChEMBL document CHEMBL1144228, “Isoxazolo[3,4-b]quinoline-3,4(1H,9H)-diones as unique, potent and selective inhibitors for Pim-1 and Pim-2 kinases: chemistry, biological activities, and molecular modeling” (Bioorg Med Chem Lett, 2008)
pKi: −log10 of the molar value.

Key:
[1] = biological target: Serine/threonine-protein kinase pim-1 (Homo sapiens, UniProt P11309); assay: Inhibition of Pim1
[2] = biological target: Serine/threonine-protein kinase pim-2 (Homo sapiens, UniProt Q9P1W9); assay: Inhibition of Pim2
[3] = biological target: T1, 5'-AMP-activated protein kinase subunit beta-1 (Homo sapiens, UniProt Q9Y478); assay: Inhibition of AMPK
T1 sequence (Q9Y478 whole entry): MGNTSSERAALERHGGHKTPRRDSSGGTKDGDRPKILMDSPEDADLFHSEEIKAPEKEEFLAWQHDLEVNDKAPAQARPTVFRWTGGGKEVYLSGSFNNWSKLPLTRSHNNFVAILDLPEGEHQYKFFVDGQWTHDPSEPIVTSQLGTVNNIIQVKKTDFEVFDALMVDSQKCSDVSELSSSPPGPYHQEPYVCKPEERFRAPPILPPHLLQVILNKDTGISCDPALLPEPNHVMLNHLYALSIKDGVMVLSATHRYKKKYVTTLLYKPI

[4] = Inhibition of Aurora1
[5] = Inhibition of Aurora2
[6] = Inhibition of Casein kinase 2
[7] = biological target: Serine/threonine-protein kinase MARK1 (Homo sapiens, UniProt Q9P0L2); assay: Inhibition of MARK
[8] = Inhibition of PKA
[9] = biological target: T2, Protein kinase C iota type (Homo sapiens, UniProt P41743); assay: Inhibition of PKCiota
T2 sequence (P41743 whole entry): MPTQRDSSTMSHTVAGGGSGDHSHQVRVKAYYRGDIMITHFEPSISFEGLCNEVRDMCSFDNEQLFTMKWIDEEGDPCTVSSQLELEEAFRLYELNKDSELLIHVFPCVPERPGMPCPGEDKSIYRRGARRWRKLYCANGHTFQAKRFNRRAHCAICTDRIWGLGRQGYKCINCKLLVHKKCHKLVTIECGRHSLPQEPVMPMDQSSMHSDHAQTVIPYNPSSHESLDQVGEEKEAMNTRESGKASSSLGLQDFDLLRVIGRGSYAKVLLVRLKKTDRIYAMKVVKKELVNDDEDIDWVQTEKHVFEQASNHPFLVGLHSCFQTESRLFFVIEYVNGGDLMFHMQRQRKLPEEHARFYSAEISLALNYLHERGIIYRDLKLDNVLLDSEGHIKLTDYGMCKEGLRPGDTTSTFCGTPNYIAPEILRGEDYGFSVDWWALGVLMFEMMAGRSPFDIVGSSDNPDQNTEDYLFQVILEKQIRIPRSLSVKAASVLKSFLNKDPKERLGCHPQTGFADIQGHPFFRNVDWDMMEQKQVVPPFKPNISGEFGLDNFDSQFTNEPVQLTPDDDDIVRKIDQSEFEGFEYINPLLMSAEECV

Sequence of Serine/threonine-protein kinase pim-2 (Q9P1W9 whole entry): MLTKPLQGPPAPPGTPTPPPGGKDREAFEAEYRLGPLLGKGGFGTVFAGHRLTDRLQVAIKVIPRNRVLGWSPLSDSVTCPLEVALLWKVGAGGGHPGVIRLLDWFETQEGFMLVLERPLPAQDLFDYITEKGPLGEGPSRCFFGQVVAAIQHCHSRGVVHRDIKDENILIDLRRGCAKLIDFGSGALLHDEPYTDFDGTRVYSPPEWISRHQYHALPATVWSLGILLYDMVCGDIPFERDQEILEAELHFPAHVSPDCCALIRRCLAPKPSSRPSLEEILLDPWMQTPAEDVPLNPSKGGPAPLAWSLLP
Sequence of Serine/threonine-protein kinase pim-1 (P11309 whole entry): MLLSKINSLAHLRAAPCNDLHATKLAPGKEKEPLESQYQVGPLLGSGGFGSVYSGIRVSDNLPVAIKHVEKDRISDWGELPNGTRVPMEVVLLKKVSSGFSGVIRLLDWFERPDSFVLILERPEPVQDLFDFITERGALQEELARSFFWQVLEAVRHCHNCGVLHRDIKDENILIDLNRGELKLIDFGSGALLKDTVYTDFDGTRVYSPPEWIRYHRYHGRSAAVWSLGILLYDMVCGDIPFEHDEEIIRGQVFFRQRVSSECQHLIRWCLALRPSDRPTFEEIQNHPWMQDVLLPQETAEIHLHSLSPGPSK
Sequence of Serine/threonine-protein kinase MARK1 (Q9P0L2 whole entry): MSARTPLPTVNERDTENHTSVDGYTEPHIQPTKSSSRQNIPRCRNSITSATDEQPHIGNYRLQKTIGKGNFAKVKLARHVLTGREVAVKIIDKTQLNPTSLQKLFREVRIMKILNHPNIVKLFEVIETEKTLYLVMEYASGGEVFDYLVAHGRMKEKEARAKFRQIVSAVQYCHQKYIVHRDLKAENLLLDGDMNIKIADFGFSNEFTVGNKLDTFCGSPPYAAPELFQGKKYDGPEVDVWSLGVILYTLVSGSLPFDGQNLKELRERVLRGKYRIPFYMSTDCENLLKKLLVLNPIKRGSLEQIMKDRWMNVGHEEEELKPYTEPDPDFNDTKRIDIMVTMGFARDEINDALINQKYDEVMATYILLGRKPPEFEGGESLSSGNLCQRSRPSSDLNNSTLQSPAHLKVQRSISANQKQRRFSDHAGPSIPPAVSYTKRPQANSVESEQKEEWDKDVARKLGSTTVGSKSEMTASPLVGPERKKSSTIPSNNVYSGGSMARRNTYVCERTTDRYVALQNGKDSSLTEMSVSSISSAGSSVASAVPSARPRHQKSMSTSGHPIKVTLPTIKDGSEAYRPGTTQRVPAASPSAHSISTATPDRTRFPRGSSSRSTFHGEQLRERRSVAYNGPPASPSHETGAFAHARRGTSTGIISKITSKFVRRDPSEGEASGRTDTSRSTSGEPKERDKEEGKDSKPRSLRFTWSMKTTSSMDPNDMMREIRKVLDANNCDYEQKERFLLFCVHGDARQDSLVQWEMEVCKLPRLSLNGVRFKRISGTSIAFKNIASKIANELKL

Structure (SMILES)	pKi [1]	pKi [2]	further results
O=c1o[nH]c2c1c(=O)c1cc(F)c(Cl)cc1n2Cc1ccccc1	7.44	6.25	–
CCn1c2cc(Cl)c(OC)cc2c(=O)c2c(=O)o[nH]c21	5.57	< 5.85	–
CCn1c2cc(Cl)c(F)cc2c(=O)c2c(=O)on(CCOCc3ccccc3)c21	5.31	< 5.85	–
CCn1c2cc(Cl)c(F)cc2c(=O)c2c(=O)on(Cc3ccccc3)c21	5.90	< 5.85	–
CCCCn1c2cc(Cl)c(F)cc2c(=O)c2c(=O)o[nH]c21	7.82	6.78	–
CCn1c2cc(Cl)c(O)cc2c(=O)c2c(=O)o[nH]c21	–	7.36	pKi [3]: 5.76; pKi [4]: < 5.16; pKi [5]: < 5.18; pKi [6]: 5.97; pKi [7]: < 5.07; pKi [8]: < 5.12; pKi [9]: < 5.08
CC(C)n1c2cc(Cl)c(F)cc2c(=O)c2c(=O)o[nH]c21	7.91	7.20	–
CCn1c2cc(Cl)c(F)cc2c(=O)c2c(=O)on(Cc3cccc(O)c3)c21	6.57	< 5.85	–
CCn1c2cc(Cl)c(F)cc2c(=O)c2c(=O)on(CCO)c21	5.93	< 5.85	–
